Source: patent US8852876B2, “Label free biosensors and cells” (Corning Incorporated, priority 2008, dated 2014)
Values belong to the molecule of their own block, whether it stands above or below them.

Tests used:
[1] = test system: quiescent A431 cells; assay: H2O2-induced DMR (reactive oxygen species signaling, redox state); type: cell-based, human; settings: for Effect on cell responses mediated with 1 mM H2O2: src kinase modulators; for DMR signal: 4 mM H2O2
From the text: In this study, all optical responses were monitored with a wavelength interrogation system. The RWG biosensor is comprised of three major components for bioassay applications: an Epic™ sensor microplate, an RWG detector, and a liquid handling system. The sensor microplate consists of a glass bottom plate attached to a plastic holy plate of a given SBS format (e.g., 96-well or 384-well), which enables high throughput screening. In a 96 well Epic™ sensor microplate, each well contains one RWG sensor of approximately 3×3 mm^2. The RWG sensor consists of a thin film of dielectric material on the grating presenting glass substrate.
The wavelength interrogation detector system is centered on integrated fiber optics. A broadband light source, generated through a fiber optic and a collimating lens at nominally normal incidence through the bottom of the microplate, is used to illuminate a small region of the grating surface. A detection fiber for recording the reflected light is bundled with the illumination fiber. A series of 8 illumination/detection heads are arranged in a linear fashion, so that reflection spectra are collected from all 8 wells within the same column of a microplate at once. With the spatial-controlled movement, the whole plate is moving across the illumination/detection heads so that each sensor can be addressed multiple times, and each column be addressed in sequence. A series of spectra of the reflected lights are collected and used for analysis. Since this detection system measures the wavelength shift of the reflected lights induced by the cell response in response to stimulation, this approach is referred to the wavelength interrogation system.

[2] = test system: EGF-induced response of quiescent A431 cells; assay: Effect of compound pretreatment on EGF-induced DMR response; type: cell-based, human; settings: for Effect of pretreatment on 32 nM EGF-induced response: quiescent A431 cells
Procedure: Both A431 and CHO-K1 cells were grown in Dulbecco's modified Eagle's medium (DMEM) supplemented with 10% fetal calf serum, 100 μg/ml penicillin, and 100 μg/ml streptomycin. For cell culture, certain numbers of cells (2×10^5 to 1×10^6), either A431 or CHO-K1, were suspended in […] medium were placed in each well of a 96 well Corning Epic Biosensor microplate, and were cultured at 37° C. in air/5% CO2 for certain time until the cell density reached ˜90% and above (unless specified). The resulted cells were termed as “profilerating” cells. The “quiescent” cells were obtained by culturing the profilerating cells of desired confluencies with a medium containing no or little (˜0.1% fetal bovine serum (FBS)) for at least 16 hours.
During the assays, the cells in 100 μl medium were subject to two 25 μl HBSS buffer containing 20 mM HEPES, pH 7.4, each separated by at least 15 minutes before 50 μl stimulus-containing solution was applied. During all these steps, a parallel angular interrogation system was used to monitor the real time kinetics of cellular responses. For compound effect studies, a modified protocol was used which starts with 50 μl medium, and subject to sequential treatment: 25 μl HBSS buffer twice (each separated by at least 15 minutes), 50 μl compound solution and finally 50 μl stimulus-containing solution.

[3] = biological target: T1, protease activated receptors PAR1 and PAR2 (Homo sapiens, UniProt P25116); type: cell-based; settings: 40 unit/ml thrombin; modulators 10 μM
T1 construct: A431 cells which endogenously express PAR1 and PAR2; endogenous in cells; host or cells: A431
T1 sequence (P25116 22-425): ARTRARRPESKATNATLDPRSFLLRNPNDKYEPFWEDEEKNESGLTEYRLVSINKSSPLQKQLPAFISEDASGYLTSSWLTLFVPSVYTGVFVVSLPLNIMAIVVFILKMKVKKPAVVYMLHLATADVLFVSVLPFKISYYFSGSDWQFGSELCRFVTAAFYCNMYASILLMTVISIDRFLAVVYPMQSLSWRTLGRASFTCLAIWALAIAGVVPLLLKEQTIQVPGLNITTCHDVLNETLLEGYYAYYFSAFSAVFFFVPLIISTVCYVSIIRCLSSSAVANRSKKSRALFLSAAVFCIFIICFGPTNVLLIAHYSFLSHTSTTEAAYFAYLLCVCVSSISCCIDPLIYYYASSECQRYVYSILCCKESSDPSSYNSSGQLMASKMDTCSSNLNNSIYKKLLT
Procedure: (§1) Human epidermoid carcinoma A431 cells (American Type Cell Culture) were grown in Dulbecco's modified Eagle's medium (DMEM) supplemented with 10% fetal bovine serum (FBS), 4.5 g/liter glucose, 2 mM glutamine, and antibiotics. ˜3-7.5×10^4 cells at passage 3 to 5 suspended in 200 μl the DMEM medium containing 10% FBS were placed in each well of a 96 well microplate, and were cultured at 37° C. under air/5% CO2 until ˜95% confluency was reached (˜2-4 days).
(§2) The compound or PAR agonist solutions were made in 1×HBSS in order to match the refractive index between the cell medium and compound solution, thus minimizing the unwanted effect of bulk index change due to the introduction of compound solution which can temporarily overwhelms any DMR signal as it occurs.

[4] = test system: protease activated receptors PAR1 and PAR2; type: cell-based, human; settings: for Effect of pretreatment on trypsin-mediated DMR signal: 100 or 200 nM trypsin, modulators 10 μM
Procedure: as §1, §2

[5] = test system: CHO cells; assay: Biosensor-based cell toxicity (real-time DMR, TM0 resonant peak and band image); set-up: species or system Chinese hamster; settings: for TM0 mode resonance band image: 25 min
From the text: Profiling compounds by virtue of their cytotoxic and anti-proliferative effects is often used to profile potential anticancer agents. One such phenotype is the compromise in plasma membrane integrity when cells are exposed to cytotoxic agents, including dimethyl sulfoxide (DMSO). Using a waveguide-based biosensor technique, the feasibility for monitoring the effect of DMSO on both Chinese hamster ovary (CHO) and A431 cells was examined. Approximately 10×10^5 cells were placed into each well of a Corning Epic LID microplate. These cells were cultured in serum medium for overnight to ensure that the cells became adherent to the substrate surface and reach at least 80% confluence. The response of cells to DMSO at different concentrations (1%, 2%, 5%, 10%, 15%, 18% and 20%) was examined. Higher concentrations of ˜≧25% of DMSO result in bulk index changes which are beyond the maximum dynamic range of the sensor used and the signal was lost. At least two sets of experiments were carried out for each cell line.
Both A431 and CHO-K1 cells were grown in Dulbecco's modified Eagle's medium (DMEM) supplemented with 10% fetal calf serum, 100 μg/ml penicillin, and 100 μg/ml streptomycin. For cell culture, ˜10×10^5 cells, either A431 or CHO-K1, were suspended in 200 μl medium were placed in each well of a 96 well Corning Epic Biosensor microplate, and were cultured at 37° C. in air/5% CO2 for overnight. Before the assays, the cells were washed once with the corresponding medium. During the assays, the cells in 100 μl medium were subject to two 25 μl HBSS buffer solutions containing 20 mM HEPES, pH 7.4, each separated by at least 15 minutes before 50 μl DMSO solution was applied. During all these steps, a parallel angular interrogation system was used to monitor the real time kinetics of cellular responses.
In one embodiment, the present invention provides a method for high throughput screening compound toxicity on cells using optical biosensors, which comprises of: (a) Provide a microplate that there is an optical-based label free biosensor embedded in the bottom of each well; (b) Place cells into each well to cover the biosensor such that the cells attach and reach high confluency onto the surface of the biosensor; (c) Apply a compound solution into the cell medium of each well; (e) Collect optical waveguide lightmode spectra at certain time. Comparing the PWHM of each compound with a control well wherein the cells are not exposed to any compound solution, the toxicity of compounds can be evaluated using the single data point. If necessary, time-dependent PWHM changes can be also recorded to study the kinetics.
In another embodiment, the present invention provides alternative methods to evaluate compound toxicity, which comprises of: (a) Provide a microplate that there is an optical-based label free biosensor embedded in the bottom of each well; (b) Place cells into each well to cover the biosensor such that the cells attach and reach desired confluency onto the surface of the biosensor; (c) Apply a compound solution into the cell medium of each well; (e) Collect images of TM0 mode resonance angular band of the whole sensor area of each well at certain time. Comparing the widths of the resonant bands of sensors that have been treated with a compound solution with that of a control well wherein the cells are not exposed to any compound solution; the toxicity of compounds can be evaluated.

[6] = test system: endogenous GPCRs in A431 cells; assay: DMR optical biosensor profiling of GPCR agonists; type: cell-based, human; settings: quiescent A431; first class = Gq-type, second = Gs-type, third = Gi-type, fourth = no significant DMR
[7] = test system: protease activated receptors PAR1 and PAR2; assay: Fluo-3 Ca2+ mobilization assay with PAR agonists; type: cell-based, human
Procedure: A431 at passage 3 to 5 were grown in Costar™ 96 well clear cell culture microplates until ˜95% confluency, washed twice and starved overnight with the DMEM only, washed with 1×HBSS (1× regular Hank's balanced salt solution, 20 mM HEPES buffer, pH 7.0) in the presence of 2.5 mM probenicid, and labeled in the same buffer containing 4 μM Fluo-3 for 1 hour at room temperature. The cells were then washed twice with buffer, maintained with 100 μl 1×HBSS containing 2.5 mM probenicid. The assay was initiated by transferring 50 μl PAR agonist solution to the cell plate, and calcium signal was recorded over 6 minutes with a 6 sec interval using HTS7000 BioAssay Reader (PerkinElmer Life Science, Boston, Mass.). The assays were carried out at room temperature in order to allow direct comparison with optical sensing data.

Molecule: Nc1ncnc2c1cnn2-c1ccccc1 [PP3]
Effect on cell responses mediated with 1 mM H2O2 [1]: did not affect the responses

Molecule: COC(=O)Nc1nc2ccc(C(=O)c3cccs3)cc2[nH]1 [nocodazole]
Effect of pretreatment on 32 nM EGF-induced response [2]: hardly any effect on the EGF-induced response
Effect of pretreatment on thrombin-mediated DMR signal [3]: neither a stabilizing polymeric F-actin agent phalloidin nor a microtubule disrupter nocodazole had significant effect
Effect of pretreatment on trypsin-mediated DMR signal [4]: neither a stabilizing polymeric F-actin agent phalloidin nor a microtubule disrupter nocodazole had significant effect

Molecule: C/C1=C/C(=O)O[C@@H]2C[C@@H](CC[C@H](C)/C=C\C=C\CC1)O[C@@](O)([C@@H]1CSC(=O)N1)C2 [latrunculin A]
Effect of pretreatment on 32 nM EGF-induced response [2]: totally abolished the N-DMR signal
Effect of pretreatment on thrombin-mediated DMR signal [3]: completely blocked either thrombin- or trypsin-mediated DMR signal
Effect of pretreatment on trypsin-mediated DMR signal [4]: completely blocked either thrombin- or trypsin-mediated DMR signal

Molecule: CC(C)(C)n1nc(-c2ccc(Cl)cc2)c2c(N)ncnc21 [PP2]
Effect on cell responses mediated with 1 mM H2O2 [1]: significantly suppressed the H2O2-mediated cell responses

Molecule: Cc1ccc(-c2nn(C(C)(C)C)c3ncnc(N)c23)cc1 [PP1]
Effect on cell responses mediated with 1 mM H2O2 [1]: significantly suppressed the H2O2-mediated cell responses
Effect of pre-treatment on EGF-induced P-DMR and N-DMR signals ([2]; starved A431 cells, 8 nM EGF, 30-minute pretreatment, GH 0.5 ng/ml, PD98059 0.1 mM, PP1 1 μM, wortmannin 0.1 μM, DIP 50 μM): significantly reduced both the binding and DMR signals

Molecule: OO [H2O2, hydrogen peroxide]
DMR signal (shift in incident angle) ([1]; 1 mM H2O2): triggered significant mass redistribution within the sensing volume of the sensors
PWHM of resonant peak of TM0 mode ([1]; 1 mM H2O2): slightly increased the PWHM of the resonant peak of TM0 mode
DMR signal ([1]; high redox state cells): a characteristic of cells undergoing apoptosis
DMR signal ([1]; low redox state cells): a typical DMR signal for the low redox state of cells
DMR signal and Live/Dead cell staining ([1]; H2O2 at or above 16 mM): the cells treated with high doses of H2O2 undergo apoptosis
DMR signal (wavelength shift) ([1]; H2O2 at or below about 8 mM): a typical curve that consists of two major events: an initial peak and a prolonged increased mass signal

Molecule: CN(C)CCCn1cc(C2=C(c3c[nH]c4ccccc34)C(=O)NC2=O)c2ccccc21 [GF 109203x]
Effect of pretreatment on 32 nM EGF-induced response [2]: partial attenuation on the response
Effect of pretreatment on thrombin-mediated DMR signal [3]: no obvious effect on both thrombin- and trypsin-mediated DMR signal
Effect of pretreatment on trypsin-mediated DMR signal [4]: no obvious effect on both thrombin- and trypsin-mediated DMR signal

Molecule: C[S+](C)[O-] [DMSO, dimethyl sulfoxide]
Effect of pretreatment on 32 nM EGF-induced response [2]: a little effect on the EGF-induced response
TM0 mode resonance band image ([5]; 18% DMSO, confluency above 70%): DMSO-induced resonance band broadening
PWHM of TM0 resonant peak over time ([5]; 18% DMSO, cell density below ~25%): no change in the PWHM value over time
PWHM of TM0 resonant peak over time ([5]; 18% DMSO, confluency >70%): an initial increase in PWHM followed by decreasing PWHM value
DMSO-induced time-dependent response of cell layer, event D ([5]; DMSO 20%): a prolonged and decreased signal due to the loss of proteins or other biological molecules of cells caused by the toxicity of high concentrations of DMSO
DMSO-induced time-dependent response of cell layer ([5]; DMSO concentration <20%): the response is almost featureless
TM0 mode resonance band image ([5]; ~15% DMSO, ~95% confluency): a second resonance band appearing
TM0 mode resonance band image, dependence on DMSO concentration ([5]; ~95% confluency, 25 min treatment): only higher concentrations cause significant cell toxicity

Maximal [Ca2+]i elevation ([7]; quiescent A431, Fluo-3): 74.3±3.9%
[Ca2+]i elevation after preceding stimulation with thrombin ([7]; thrombin 40 unit/ml first, interval 6 min): 32±4.3%
Molecule: SFFLR-amide [PAR1-AP]
Class of optical signature (DMR) induced by agonist [6]: first class of optical signatures
Effect of preceding stimulation on trypsin-induced DMR signal ([4]; interval about 1 hour): significantly suppresses but not completely eliminates the trypsin-induced DMR signal
Effect of preceding stimulation on trypsin-induced [Ca2+]i elevation ([7]; interval 6 min, 200 nM trypsin): significantly attenuated but not completely eliminates the trypsin-induced [Ca^2+]i elevation
